Read-outs that look alike come from different tables or passages of the source.
Experiments:
ZR75 cells = test: 3H-thymidine incorporation (DNA synthesis) / proliferation of ZR75 cells, estrogen-like activity; type: cell-based, human
Source text: The following test was employed to determine whether resveratrol has an estrogen-like activity:
The ZR75 cell line is a ductal breast carcinoma cell line, originally isolated from malignant mammary epithelium of a person (Engel et al., Human breast carcinoma cells in continuous culture: A review., Cancer Res., 38: 4327-4339, 1978). This cell line contains receptors for estrogen, progesterone and other steroid hormones, but responds through an increase in proliferation only to estrogen. The cell line contains high affinity estrogen-specific receptors. Therefore, this cell line is used for testing estrogen-like activity (Markiewicz et al., In vitro bioassays of non-steroidal phytoestrogens, J. Steroid Biochem. Molec. Biol., 45: 399-405, 1993)
Methodology Used for Determining the Rate of DNA Synthesis in Cells
The incorporation of ^3 H-thymidine by cultured cells was used as an assay of cell proliferation (both for ZR75 cells and for keratinocytes). Thymidine is one of four deoxynucleosides which are the monomeric units of DNA. Prior to cell division of a somatic cell, the complete genome of the cell undergoing cell division is replicated. This involves large scale DNA synthesis by the cell and enables both daughter cells to receive identical copies of the genetic material. When ^3 H-thymidine is included in the culture media of cells which are synthesizing DNA in preparation for cell division then the labeled thymidine is incorporated into the newly synthesized DNA. The extent of incorporation of ^3 H-thymidine into a population of cells is proportional to the rate of DNA synthesis by this population of cells and therefore an indication of their cellular proliferation.
ZR75 cells (from American Type Culture Collection, Rockville, Md.) were grown in RPMI1640 media (from Gibco Life Technologies) with 10% fetal bovine serum (FBS) , 100 units penicillin per ml and 100 units of streptomycin per ml. All incubations were performed at 37° C. in 5% CO2. […] The cells were seeded at a density of one million per 75 cm2 flask. For the experiment, the cells were seeded in 24 well plates at 100,000 cells per ml per well.
After growing for 24 hours, the media was removed, the cells were washed with PBS (phosphate buffered saline, 0.01 M sodium phosphate, 0.138 M sodium chloride, 0.0027 M potassium chloride, pH 7.4) and 1 ml of RPMI 1640 without serum (but with streptomycin and penicillin) was added. Stock solutions of resveratrol in dimethyl sulfoxide (DMSO) and estradiol in water were prepared. […] After another 24 hours, one μCi of [methyl-3H] thymidine was added to each well. The media was removed after 24 hours. The cells were washed once in PBS, the PBS was removed completely and the cells were left on ice to incubate with 1 ml per well of 10% TCA (trichloroacetic acid) for 30 minutes. The plates were washed 3 times with 5% TCA to remove all traces of thymidine which wasn't incorporated into the cells. 500 μl of 0.1M sodium hydroxide was added to each well and the plates were incubated at room temperature for at least 30 minutes. 250 μl of each sample was transferred to scintillation vials and after adding 5 mL of counting fluid, the vials were counted for 5 minutes each on a setting for tritium. […] Values were expressed as mean of quadruplicate wells +/- standard deviation.

Transglutaminase (TG-1) = test: ELISA based TG-1 assay, differentiation of keratinocytes; type: cell-based, human
Source text: Methodology for Transglutaminase Measurement
During the process of terminal differentiation in the epidermis, a 15 nm thick layer of protein, known as the cornified envelope (CE) is formed on the inner surface of the cell periphery. The CE is composed of numerous distinct proteins which have been cross-linked together by the formation of N-((-glutamyl) lysine isodipeptide bonds catalyzed by the action of at least two different transglutaminases expressed in the epidermis. Transglutaminase (TG-1) is expressed in abundance in the differentiated layers of the epidermis, especially the granular layer, but is absent in the undifferentiated basal epidermis. Thus, TG-1 is a useful marker of epidermal keratinocyte differentiation with high TG-1 levels indicating a more differentiated state. An ELISA based TG-1 assay, using a TG-1 antibody, was used to assess the state of differentiation of the cultured keratinocytes in the examples that follow.
The level of TG-1 was measured as follows. Keratinocytes were obtained as described in Example 2. For the experiment, about 30,000 cells were plated into each well of 6 well plates and grown for five days, until the cells reach about 20-30% confluence. 2 ml/well of fresh KGM were added daily with 2 μl of 2-50 mM resveratrol in DMSO for 3 days. Control wells also received 2 μl of DMSO. After 3 days of treatment, cells were washed twice with PBS and placed in freezer for 2 hours. Cells were then thawed for 2 hours. DNA content of the cells were quantitated by using the DNA binding flurophore, bis-benzimidazole (Hoechst 33258) and measuring the specific fluorescence of the DNA-bound flurophore at 450 nm (excitation at 360 nm).
TG-1 levels of the cells in the wells were determined using the TG-1 specific monoclonal antibody (BC1) (first antibody) (obtained from Amersham Life Sciences) and using a peroxidase labeled rabbit antimouse IgG fragment (second antibody). The plates were blocked by 5% nonfat milk in TBS (Tris buffered saline, 0.01 M Tris, 0.150 M sodium chloride, pH 8.0) for one hour followed by 2 hour incubation with the first antibody (1:4,000 fold dilution) in 1% milk/TBS at room temperature. After rinsing the plates three times with 1% milk/TBS containing 0.05% Tween 20, the plates were incubated with 1:4000 dilution of the second antibody at room temperature for two hours. The plates were rinsed three times with 1% milk/TBS/Tween and three times with TBS. Color was developed by incubation with o-phenylene diamine and hydrogen peroxide. The absorbance was read at 492 nm on a Ultrospec 3000 spectrophotometer (Pharmacia Biotech) and TG-1 levels were calculated as Abs/DNA fluorescence. The mean±standard deviation of at least 3 separate wells were used for calculation and statistical analysis of the data. Values were expressed as absorbance for TG-1 per arbitrary unit of DNA fluorescence of triplicate wells±standard deviation. Results were also expressed as % of control.

[1] = Homo sapiens, ZR75, read-out: DNA synthesis (% of Control), EXPT 1, control DMSO
[2] = Homo sapiens, ZR75, read-out: DNA synthesis (% of Control), EXPT 2, control DMSO

SMILES: Oc1ccc(/C=C/c2cc(O)cc(O)c2)cc1 [Resveratrol, 3,4'5-stilbenetriol]
- activity at 0.5 µM (ZR75 cells; [1]): 69.7 ± 10%
- activity at 1 µM (ZR75 cells; [1]): 58.8 ± 9%
- activity at 10 µM (ZR75 cells; [1]): 208 ± 32.5%
- activity at 20 µM (ZR75 cells; [1]): 135 ± 21.4%
- activity at 40 µM (ZR75 cells; Homo sapiens, ZR75, read-out: DNA synthesis (% of Control), EXPT 1, 40 μM, control DMSO): 60.8 ± 26.4%
- activity at 50 µM (ZR75 cells; Homo sapiens, ZR75, read-out: DNA synthesis (% of Control), EXPT 1, 50 μM, control DMSO): 4.1 ± 1.4%
- activity at 0.5 µM (ZR75 cells; [2]): 56.8 ± 4.2%
- activity at 1 µM (ZR75 cells; [2]): 60.5 ± 3.6%
- activity at 5 µM (ZR75 cells; Homo sapiens, ZR75, read-out: DNA synthesis (% of Control), EXPT 2, 5 μM, control DMSO): 159 ± 4.1%
- activity at 10 µM (ZR75 cells; [2]): 163 ± 13.7%
- activity at 15 µM (ZR75 cells; Homo sapiens, ZR75, read-out: DNA synthesis (% of Control), EXPT 2, 15 μM, control DMSO): 119 ± 2.5%
- activity at 20 µM (ZR75 cells; [2]): 68 ± 3.9%
- proliferation of ZR 75 cells (ZR75 cells; concentration from 5 to 20 μM): increased proliferation of ZR 75 cells
- transglutaminase expression of keratinocytes vs control (Transglutaminase (TG-1); Experiment 1, 10 μM): not significantly different from control
- TG-1 levels/μg DNA (Transglutaminase (TG-1); Experiment 1, 10 μM, 3 days): 8.49 ± 1.77 /μg DNA
- TG-1 levels/μg DNA (Transglutaminase (TG-1); Experiment 1, 25 μM, 3 days): 10.92 ± 2.29 /μg DNA
- TG-1 levels/μg DNA (Transglutaminase (TG-1); Experiment 1, 50 μM, 3 days): 22.2 ± 1.50 /μg DNA
- TG-1 levels/μg DNA (Transglutaminase (TG-1); Experiment 2, 2 μM, 3 days): 3.42 ± 0.42 /μg DNA
- TG-1 levels/μg DNA (Transglutaminase (TG-1); Experiment 2, 5 μM, 3 days): 3.51 ± 0.41 /μg DNA
- TG-1 levels/μg DNA (Transglutaminase (TG-1); Experiment 2, 10 μM, 3 days): 3.61 ± 0.17 /μg DNA
- TG-1 levels/μg DNA (Transglutaminase (TG-1); Experiment 2, 25 μM, 3 days): 4.69 ± 0.21 /μg DNA
- TG-1 levels/μg DNA (Transglutaminase (TG-1); Experiment 2, 50 μM, 3 days): 4.65 ± 0.46 /μg DNA
- keratinocyte differentiation (Transglutaminase (TG-1); Experiment 2, all concentrations of 2 μM and higher): significantly increased keratinocyte differentiation
- activity at 10 µM (Transglutaminase (TG-1); Homo sapiens, Keratinocyte, 72 h, Experiment 1, 10 μM, 3 days, read-out: TG-1 levels, % of control): 126%
- activity at 25 µM (Transglutaminase (TG-1); Homo sapiens, Keratinocyte, 72 h, Experiment 1, 25 μM, 3 days, read-out: TG-1 levels, % of control): 162%
- activity at 50 µM (Transglutaminase (TG-1); Homo sapiens, Keratinocyte, 72 h, Experiment 1, 50 μM, 3 days, read-out: TG-1 levels, % of control): 329%
- activity at 2 µM (Transglutaminase (TG-1); Homo sapiens, Keratinocyte, 72 h, Experiment 2, 2 μM, 3 days, read-out: TG-1 levels, % of control): 179%
- activity at 5 µM (Transglutaminase (TG-1); Homo sapiens, Keratinocyte, 72 h, Experiment 2, 5 μM, 3 days, read-out: TG-1 levels, % of control): 184%
- activity at 10 µM (Transglutaminase (TG-1); Homo sapiens, Keratinocyte, 72 h, Experiment 2, 10 μM, 3 days, read-out: TG-1 levels, % of control): 189%
- activity at 25 µM (Transglutaminase (TG-1); Homo sapiens, Keratinocyte, 72 h, Experiment 2, 25 μM, 3 days, read-out: TG-1 levels, % of control): 246%
- activity at 50 µM (Transglutaminase (TG-1); Homo sapiens, Keratinocyte, 72 h, Experiment 2, 50 μM, 3 days, read-out: TG-1 levels, % of control): 243%
- transglutaminase expression of keratinocytes (Transglutaminase (TG-1); all other concentrations): significantly increased transglutaminase expression of keratinocytes

— patent US6270780A, “Cosmetic compositions containing resveratrol” (Chesebrough-Pond's USA Co., division of Conopco, priority 1998, dated 2001)
